We go through 1 compound from ChEMBL document CHEMBL4842322, “A naphthalimide-polyamine conjugate preferentially accumulates in hepatic carcinoma metastases as a lysosome-targeted antimetastatic agent” (Eur J Med Chem, 2021).

SMILES strings stand for the structures. Active and inactive are the calls of the source. No cut-off for these calls is given here.

Series [1] in a line: Toxicity in BALB/c mouse xenografted with human HCC cells assessed as body weight at 1 to 5 mg/kg, iv administered once daily for 7 days. Type of series: organism-based. Particulars: in vivo, 168 h, dose 1-5 mg/kg, time 7 day.
Series [2] relates to HepG2. The series is described as follows: Inhibition of tumor metastasis in human HepG2 cells assessed as upregulation of LC3-I gene expression level at 5 to 15 uM measured after 24 hrs by qRT-PCR analysis. Type of series: functional, cell-based. Conditions: dose 5-15 µM. In general terms: In qPCR the cycle at which signal appears reflects the starting amount.
Series [3] deals with HepG2. As to the kind of experiment: Downregulation of Spermidine contents in human HepG2 cells measured after 24 hrs by HPLC analysis. Type of series: functional, cell-based.
In series [4] the test system is HepG2. The series is described as follows: Cytotoxicity against human HepG2 cells assessed as reduction in cell viability at 5 to 15 uM incubated for 24 hrs in presence of polyamine transporter inhibitor, Spd by MTT assay. Type of series: functional, cell-based. Particulars: dose 5-15 µM. Background: Tetrazolium dyes change colour on reduction, which living cells bring about.

The nature of series [5]: Toxicity in BALB/c mouse xenografted with human HCC cells assessed as effect on liver weight index at 1 to 5 mg/kg, iv administered once daily for 7 days. Type of series: organism-based. Particulars: in vivo, 168 h, dose 1-5 mg/kg, time 7 day. (In general: Xenograft models place foreign cells or tissue in a host animal.)
Series [6] is described as follows: Upregulation of PAO expression in human HepG2 cells at 10 uM measured after 24 hrs relative to control. Type of series: functional.
In series [7] the test system is HepG2. The series is described as follows: Downregulation of Spermine contents in human HepG2 cells measured after 24 hrs by HPLC analysis. Type of series: functional, cell-based.
A short description of series [8]: Antimetastatic activity against human HCC cells xenografted in BALB/c mouse assessed as reduction lung metastatic nodules at 5 mg/kg, iv administered once every 2 days for 14 days. Type of series: functional. Conditions: 336 h, time 14 day.
In series [9] the test system is MCF7. As to the kind of experiment: Cytotoxicity against human MCF7 cells assessed as inhibition of cell growth incubated for 48 hrs by MTT assay. Type of series: functional, cell-based. Particulars: MCF7, 48 h.
The test system of series [10] is Huh-7. As to the kind of experiment: Downregulation of Spermidine contents in human Huh-7 cells measured after 24 hrs by HPLC analysis. Type of series: functional, cell-based.
In series [11] the test system is Huh-7. As to the kind of experiment: Cytotoxicity against human Huh-7 cells assessed as inhibition of cell growth incubated for 48 hrs by MTT assay. Type of series: functional, cell-based. Conditions: Huh-7, 48 h.
Series [12] can be described thus: Antitumor activity against human HCC cells xenografted in BALB/c mouse assessed as inhibition of tumor weight at 3 mg/kg, iv administered once daily for 7 days. Type of series: functional. Particulars: 168 h, time 7 day.
In series [13] the test system is Huh-7. The series is described as follows: Downregulation of Spermine contents in human Huh-7 cells measured after 24 hrs by HPLC analysis. Type of series: functional, cell-based.
The test system of series [14] is A549. The series is described as follows: Cytotoxicity against cisplatin-resistant human A549 cells assessed as inhibition of cell growth incubated for 48 hrs by MTT assay. Type of series: functional, cell-based. Particulars: A549, 48 h.
Series [15] in a line: Antimetastatic activity against human HCC cells xenografted in BALB/c mouse assessed as reduction lung metastatic nodules at 3 mg/kg, iv administered once every 2 days for 14 days. Type of series: functional. Conditions: 336 h, time 14 day.
The test system of series [16] is A549. The series is described as follows: Cytotoxicity against human A549 cells assessed as inhibition of cell growth incubated for 48 hrs by MTT assay. Conditions: A549, 48 h. Type of series: functional, cell-based.
A short description of series [17]: Toxicity in BALB/c mouse xenografted with human HCC cells assessed as effect on body weight at 1 to 5 mg/kg, iv administered once every 2 days for 14 days. Type of series: organism-based. Conditions: in vivo, 336 h, dose 1-5 mg/kg, time 14 day.
The subject of series [18] is HepG2. The series is described as follows: Inhibition of tumor metastasis in human HepG2 cells assessed as upregulation of p53 gene expression level at 5 to 15 uM measured after 24 hrs by qRT-PCR analysis. Particulars: dose 5-15 µM. Type of series: functional, cell-based.
Series [19] deals with HepG2. The series is described as follows: Downregulation of Putrescine contents in human HepG2 cells measured after 24 hrs by HPLC analysis. Type of series: functional, cell-based.
Series [20] has as its system HepG2. The series is described as follows: Inhibition of tumor metastasis in human HepG2 cells assessed as downregulation of LC3-II gene expression level at 5 to 15 uM measured after 24 hrs by qRT-PCR analysis. Type of series: functional, cell-based. Conditions: dose 5-15 µM.
The nature of series [21]: Ratio of cisplatin IC50 to test compound IC50 for human A549 cells by MTT assay. Type of series: functional.
Series [22] can be described thus: Resistance factor, ratio of IC50 for cisplatin-resistant human A549 cells to IC50 for human A549 cells. Type of series: functional.
Series [23] is described as follows: Toxicity in BALB/c mouse xenografted with human HCC cells assessed as effect on heart weight index at 1 to 5 mg/kg, iv administered once daily for 7 days. Type of series: organism-based. Conditions: in vivo, 168 h, dose 1-5 mg/kg, time 7 day.
Series [24] concerns A549. The series is described as follows: Inhibition of tumor metastasis in cisplatin-resistant human A549 cells assessed as upregulation of p53 expression level at 5 to 15 uM measured after 24 hrs by western blot analysis. Type of series: functional, cell-based. Conditions: dose 5-15 µM.

As usually defined, the inhibition in vivo is the share of the control response that was lost under treatment. One may read the IC50 as the point on the concentration scale where inhibition reaches its midpoint. `NCCCCNCCCCNCCCCN1C(=O)c2cccc3cc(NC(=O)CN)cc(c23)C1=O`: the Activity entry in series [1], in [5], in series [17] and in [23] was “Non-Toxic” in each case. Further, the inhibition entry in [2], in [3], in series [7], in [10], in series [13] and in series [18] was “Active” in each case. Moreover, the inhibition result in [19], in [20] and in series [24] was “Active” each time. Moreover, the result in [4] was inactive. For the same compound, in [6], the “fold change (FC)” value was 1.5. The inhibition in vivo at 5 mg/kg in series [8] turned out to be 75%. Besides, the 50% inhibitory concentration (IC50) in [9] was 16.2 µM; in series [11], 980 nM; in series [14] it was 15.5 µM; in series [16], 20.3 µM. The results for the inhibition in vivo at 3 mg/kg in [12] and in series [15] were 70.1% and 65.5%, respectively. In addition, the “Ratio IC50” value in [21] turned out to be 0.5; in series [22], 0.76.
